The data set in a line: physchem. The following applies: HBS, aqueous buffer.

Where only a bound is given, the exact number is not on record here.

For the compound `Clc1ccc(COC(Cn2ccnc2)c2ccc(Cl)cc2Cl)cc1` (stereo not shown) [econazole, [(dichloro-2,4 phenyl)-2(chloro-4 benzoyloxy)-2 ethyl]-1 imidazole nitrate], the solubility was < 100 µg/mL.

The values above are taken from patent US20080026049A1, “LIPOSOMAL COMPOSITIONS FOR PARENTERAL DELIVERY OF AGENTS” (priority 2005, published 2008).
